Our source for the IC50 values is publication PMC5395518, “Design, synthesis, and biological evaluation of the novel glycyrrhetinic acid-cinnamoyl hybrids as anti-tumor agents” (Chemistry Central Journal, 2016).

One assay deals with HY926 cells. In words: MTT cytotoxicity assay, HY926 (non-tumor). Type of assay: cell-based. The note with it: MTT, 72 h, mean ± SD (n = 3), non-tumor cells. An excerpt:
(§1) HepG2 (human hepatocellular carcinoma), Hela (human cervical cancer), HT-29 (human colon carcinoma), MDCK (Madin–Darby canine kidney), H9C2 (rat myocardial cells) and HY926 were purchased from the Chinese Academy of Medical Sciences and Peking Union Medical College. All of these cell lines were maintained in RPMI-1640 (DMEM) supplemented with 10% (v/v) fetal bovine serum (FBS) and 1% (v/v) penicillin/streptomycin (Thermo Technologies, New York, NY, USA) under a humidified atmosphere containing 5% CO2 at 37 °C. To provide stock solutions which were used to prepare various concentrations of treatment media, GA and hybrids were added a volume of DMSO.
(§2) The cytotoxicity of these compounds was evaluated on three human cancer cell lines (HepG2, HT-29, Hela) and three non-tumor cells lines (MDCK, HY926, H9C2) and MTT assay was performed to detect the cell proliferation. Simply, exponentially growing cells were cultured in 96-well plates (3 × 10^3 cells/well). And the plates were placed in a humidified atmosphere for 72 h at 37 °C with 5% CO2. After added MTT solution (5 mg/mL) 20 μL to each well, the plate was incubated for a further 4 h. Then the cell supernatant was removed and 150 μL DMSO was added. Finally, the absorbance was determined at wavelength of 490 nm with the ELISA. Wells without drugs were used to be blanks. The IC50 values were calculated using Logit-method. The following Eq. (1) was proposed to calculate the inhibitory rate of cell growth:1 %inhibition=1-Sample group OD/Control group OD×100%

A further assay deals with HepG2 cells. The experiment in a line: MTT cytotoxicity assay, HepG2. The class given is cell-based, human. The conditions noted are these: mean ± SD (n = 3).
Source text: as §1, §2

The test system of another assay is H9C2 cells. In words: MTT cytotoxicity assay, H9C2 (non-tumor). The conditions noted are these: MTT, 72 h, mean ± SD (n = 3), non-tumor cells. Type of assay: cell-based, rat.
Source text: as §1, §2
Background: Tetrazolium dyes change colour on reduction, which living cells bring about.

Another assay relates to HT-29 cells. In words: MTT cytotoxicity assay, HT-29. Type of assay: cell-based, human. The note with it: mean ± SD (n = 3).
Source text: as §1, §2

The subject of a further assay is MDCK cells. In words: MTT cytotoxicity assay, MDCK (non-tumor). The class given is cell-based, canine. The conditions noted are these: MTT, 72 h, mean ± SD (n = 3), non-tumor cells.
Source text: as §1, §2

The test system of the next assay is Hela cells. In words: MTT cytotoxicity assay, Hela. Type of assay: cell-based, human. The conditions noted are these: MTT, 72 h, mean ± SD (n = 3).
Source text: as §1, §2

Broadly, the IC50 is the point on the concentration scale where inhibition reaches its midpoint. Higher therefore signals a need for much substance. With `CC1(C)[C@@H](OC(=O)/C=C/c2ccccc2)CC[C@]2(C)[C@H]3C(=O)C=C4[C@@H]5C[C@@](C)(C(=O)O)CC[C@]5(C)CC[C@@]4(C)[C@]3(C)CC[C@@H]12` [Compound 1a, Cinnamoyl-3β-hydroxy-11-oxoolean-12-en-30-oic acid], the IC50 came out at 28.9 ± 1.85 µM in the assay on HY926 cells; 24.4 ± 1.39 µM in the assay with HepG2 cells (72 h); 46.1 ± 2.01 µM in the assay on H9C2 cells; 22.3 ± 1.75 µM in the assay on HT-29 cells (72 h); 22.6 ± 1.38 µM in the assay with MDCK cells; 23.7 ± 2.98 µM in the assay on Hela cells.
Turning to `CC1(C(=O)O)CCC2(C)CCC3(C)C(=CC(=O)C4C5(C)CCC(OC(=O)CCc6ccccc6)C(C)(C)C5CCC43C)C2C1` (stereo not drawn) [Compound 1b, Phenylpropanoyl-3β-hydroxy-11-oxoolean-12-en-30-oic acid], the IC50 in the assay on HY926 cells was 33.6 ± 3.09 µM; in the assay on HepG2 cells (72 h), 32.3 ± 1 µM; in the assay with H9C2 cells it was more than 50 µM; in the assay on HT-29 cells (72 h), 28.6 ± 2.99 µM; with MDCK cells it was 33.3 ± 2.98 µM; with Hela cells, 26.9 ± 1.74 µM.
With `Cc1ccc(/C=C/C(=O)OC2CCC3(C)C(CCC4(C)C3C(=O)C=C3C5CC(C)(C(=O)O)CCC5(C)CCC34C)C2(C)C)cc1` (stereo not drawn) [Compound 2a, (4-Methyl) cinnamoyl-3β-hydroxy-11-oxoolean-12-en-30-oic acid], the IC50 with HY926 cells is 27.6 ± 1.84 µM; in the assay on HepG2 cells (72 h), 22.1 ± 1.18 µM; with H9C2 cells it was more than 50 µM; in the assay with HT-29 cells (72 h), 21.7 ± 1.81 µM; in the assay with MDCK cells, 38 ± 1.81 µM; in the assay with Hela cells, 14.2 ± 1.1 µM.
For `COc1cccc(CCC(=O)OC2CCC3(C)C(CCC4(C)C3C(=O)C=C3C5CC(C)(C(=O)O)CCC5(C)CCC34C)C2(C)C)c1OC` (stereo not drawn) [Compound 2b, (2,3-Dimethoxy) phenylpropanoyl-3β-hydroxy-11-oxoolean-12-en-30-oic acid], the IC50 with HY926 cells was more than 50 µM; in the assay with HepG2 cells (72 h), 33.1 ± 2.09 µM; in the assay with H9C2 cells it was 45.8 ± 1.8 µM; in the assay on HT-29 cells (72 h), 29.3 ± 2.22 µM; in the assay with MDCK cells it was 41.3 ± 1.48 µM; with Hela cells, 23.1 ± 2.33 µM.
With `COc1ccccc1/C=C/C(=O)OC1CCC2(C)C(CCC3(C)C2C(=O)C=C2C4CC(C)(C(=O)O)CCC4(C)CCC23C)C1(C)C` (stereo not drawn) [Compound 3a, (2-Methoxy) cinnamoyl-3β-hydroxy-11-oxoolean-12-en-30-oic acid], the IC50 with HY926 cells was more than 50 µM; in the assay on HepG2 cells (72 h), 32 ± 1.9 µM; with H9C2 cells it was more than 50 µM; in the assay on HT-29 cells (72 h), 22.2 ± 2.34 µM; in the assay on MDCK cells, 22.9 ± 2.43 µM; in the assay with Hela cells, 24.6 ± 1.72 µM.
Consider `COc1ccc(CCC(=O)O[C@H]2CC[C@]3(C)[C@H]4C(=O)C=C5[C@@H]6C[C@@](C)(C(=O)O)CC[C@]6(C)CC[C@@]5(C)[C@]4(C)CC[C@H]3C2(C)C)c(OC)c1OC` [Compound 3b, (2,3,4-Trimethoxy) phenylpropanoyl-3β-hydroxy-11-oxoolean-12-en-30-oic acid], for which the IC50 is 38.5 ± 2.02 µM with HY926 cells; 27.3 ± 1.95 µM in the assay on HepG2 cells (72 h); more than 50 µM with H9C2 cells; 26.2 ± 1.24 µM in the assay on HT-29 cells (72 h); more than 30 µM in the assay with MDCK cells; 22.5 ± 2.16 µM in the assay on Hela cells.
Take `COc1cccc(/C=C/C(=O)OC2CCC3(C)C(CCC4(C)C3C(=O)C=C3C5CC(C)(C(=O)O)CCC5(C)CCC34C)C2(C)C)c1` (stereo not drawn) [Compound 4a, (3-Methoxy) cinnamoyl-3β-hydroxy-11-oxoolean-12-en-30-oic acid]: the IC50 in the assay on HY926 cells was 31 ± 1.87 µM; in the assay on HepG2 cells (72 h), 12.7 ± 1.1 µM; in the assay with H9C2 cells, more than 50 µM; in the assay with HT-29 cells (72 h), 14.9 ± 1.8 µM; in the assay with MDCK cells, 22.2 ± 2.56 µM; in the assay with Hela cells it was 17.5 ± 1.52 µM.
With `COc1cc(CCC(=O)OC2CCC3(C)C(CCC4(C)C3C(=O)C=C3C5CC(C)(C(=O)O)CCC5(C)CCC34C)C2(C)C)cc(OC)c1OC` (stereo not drawn) [Compound 4b, (3,4,5-Trimethoxy) phenylpropanoyl-3β-hydroxy-11-oxoolean-12-en-30-oic acid], the IC50 in the assay with HY926 cells is more than 50 µM; in the assay on HepG2 cells (72 h), 22.4 ± 1.29 µM; in the assay on H9C2 cells, more than 50 µM; in the assay on HT-29 cells (72 h), 22.4 ± 1.2 µM; in the assay with MDCK cells it was more than 30 µM; in the assay on Hela cells, 28.7 ± 1.68 µM.
In the case of `COc1ccc(C=CC(=O)OC2CCC3(C)C(CCC4(C)C3C(=O)C=C3C5CC(C)(C(=O)O)CCC5(C)CCC34C)C2(C)C)cc1` (stereo not drawn) [Compound 5a, (4-Methoxy) cinnamoyl-3β-hydroxy-11-oxoolean-12-en-30-oic acid], the IC50 in the assay with HY926 cells was more than 50 µM; in the assay with HepG2 cells (72 h) it was 31.2 ± 1.34 µM; in the assay with H9C2 cells, 36.1 ± 1.92 µM; in the assay with HT-29 cells (72 h), 33 ± 1.92 µM; with MDCK cells, 21.7 ± 1.01 µM; in the assay with Hela cells it was 23.4 ± 1.38 µM.
For `COc1cccc(/C=C/C(=O)OC2CCC3(C)C(CCC4(C)C3C(=O)C=C3C5CC(C)(C(=O)O)CCC5(C)CCC34C)C2(C)C)c1OC` (stereo not drawn) [Compound 6a, (2,3-Dimethoxy) cinnamoyl-3β-hydroxy-11-oxoolean-12-en-30-oic acid], the IC50 is 25 ± 1.38 µM in the assay on HY926 cells; 24.4 ± 1.44 µM in the assay with HepG2 cells (72 h); more than 50 µM in the assay with H9C2 cells; 24.4 ± 1.76 µM with HT-29 cells (72 h); 33.7 ± 1.4 µM in the assay with MDCK cells; 22.5 ± 2.08 µM in the assay with Hela cells.
Turning to `COc1ccc(OC)c(/C=C/C(=O)OC2CCC3(C)C(CCC4(C)C3C(=O)C=C3C5CC(C)(C(=O)O)CCC5(C)CCC34C)C2(C)C)c1` (stereo not drawn) [Compound 7a, (2,5-Dimethoxy) cinnamoyl-3β-hydroxy-11-oxoolean-12-en-30-oic acid], the IC50 with HY926 cells was 45.1 ± 2.25 µM; in the assay with HepG2 cells (72 h) it was 25.4 ± 1.97 µM; in the assay on H9C2 cells, more than 50 µM; with HT-29 cells (72 h), 26.4 ± 1.96 µM; in the assay with MDCK cells, more than 50 µM; in the assay on Hela cells it was 28 ± 1.63 µM.
With `COc1cc(/C=C/C(=O)O[C@H]2CC[C@]3(C)[C@H]4C(=O)C=C5[C@@H]6C[C@@](C)(C(=O)O)CC[C@]6(C)CC[C@@]5(C)[C@]4(C)CC[C@H]3C2(C)C)cc(OC)c1OC` [Compound 9a, (3,4,5-Trimethoxy) cinnamoyl-3β-hydroxy-11-oxoolean-12-en-30-oic acid], the IC50 came to 30.8 ± 1.37 µM in the assay with HY926 cells; 21.9 ± 1.41 µM with HepG2 cells (72 h); 47.4 ± 1.07 µM with H9C2 cells; 25.5 ± 1.29 µM in the assay on HT-29 cells (72 h); 27.7 ± 1.08 µM in the assay on MDCK cells; 30.7 ± 1.89 µM with Hela cells.
Take `N.N.[Cl][Pt][Cl]` [DPP, cisplatin, reference compound]: the IC50 in the assay with HY926 cells was 5.12 ± 0.71 µM; in the assay on HY926 cells (listed as DDP), less than 10 µM; in the assay on HepG2 cells (72 h) it was 4.57 ± 0.85 µM; in the assay on H9C2 cells, 5.31 ± 0.26 µM; with H9C2 cells (listed as DDP), less than 10 µM; in the assay with HT-29 cells (72 h), 5.28 ± 0.74 µM. Further, the IC50 in the assay on MDCK cells was 9.97 ± 1.12 µM; in the assay with MDCK cells (listed as DDP), less than 10 µM; in the assay with Hela cells, 3.76 ± 0.38 µM.
Turning to `CC1(C)[C@@H](O)CC[C@]2(C)[C@H]3C(=O)C=C4[C@@H]5C[C@@](C)(C(=O)O)CC[C@]5(C)CC[C@@]4(C)[C@]3(C)CC[C@@H]12` [GA, Glycyrrhetinic acid], the IC50 in the assay on HY926 cells is more than 100 µM; with HepG2 cells (Homo sapiens, HepG2, 72 h), more than 50 µM; with H9C2 cells (Rattus norvegicus, H9c2), more than 100 µM; in the assay on HT-29 cells (Homo sapiens, HT-29, 72 h), more than 50 µM; with MDCK cells (Canis lupus familiaris, MDCK), more than 100 µM; in the assay on Hela cells (Homo sapiens, HeLa), more than 50 µM.
